ChEMBL document CHEMBL1131748, “Nitroquinolones with broad-spectrum antimycobacterial activity in vitro” (1999)
In brackets after ≈: the same amount, converted by molar mass.

Columns and labels:
Type in all cases: functional
MT4 = test: Concentration required to reduce the viability of mock-infected MT-4 cells by 50%; settings: Homo sapiens
Mycobacterium avium [1] = test: Minimum inhibitory concentration required in vitro to reduce the number of viable of Mycobacterium avium complex (MAC) ATCC 49601 by 50%
Mycobacterium avium [2] = test: Minimum inhibitory concentration required in vitro to reduce the number of viable of Mycobacterium avium complex (MAC) ATCC 49601 by 90%
[3] = test system: Mycolicibacterium smegmatis; test: Minimum inhibitory concentration required in vitro to reduce the number of viable of Mycobacterium smegmatis ATCC 19420 by 50%
[4] = test system: Mycobacterium tuberculosis; test: Minimum inhibitory concentration required in vitro to reduce the number of viable of Mycobacterium tuberculosis ATCC 27294 by 50%
[5] = test system: Mycobacterium tuberculosis; test: Minimum inhibitory concentration required in vitro to reduce the number of viable of Mycobacterium tuberculosis clinical isolate 1104 by 50%
[6] = test system: Mycobacterium tuberculosis; test: Minimum inhibitory concentration required in vitro to reduce the number of viable of Mycobacterium tuberculosis ATCC 27294 by 90%
[7] = test system: Mycobacterium tuberculosis; test: Minimum inhibitory concentration required in vitro to reduce the number of viable of Mycobacterium tuberculosis clinical isolate 1104 by 90%
[8] = test system: Mycolicibacterium smegmatis; test: Minimum inhibitory concentration required in vitro to reduce the number of viable of Mycobacterium smegmatis ATCC 19420 by 90%
Salmonella [9] = test: Minimum bactericidal concentration required in vitro against Salmonella
Salmonella [10] = test: Minimum inhibitory concentration required in vitro against Salmonella
Shigella [11] = test: Minimum bactericidal concentration required in vitro against Shigella
Shigella [12] = test: Minimum inhibitory concentration required in vitro against Shigella
Streptococcus [13] = test: Minimum bactericidal concentration required in vitro against Streptococcus D
Streptococcus [14] = test: Minimum inhibitory concentration required in vitro against Streptococcus D
Staphylococcus aureus [15] = test: Minimum inhibitory concentration required in vitro against Staphylococcus aureus
Staphylococcus aureus [16] = test: Minimum bactericidal concentration required in vitro against Staphylococcus aureus
[17] = test system: Mycolicibacterium fortuitum; test: Minimum inhibitory concentration required in vitro to reduce the number of viable of Mycobacterium fortuitum (clinical isolate) by 50%
[18] = test system: Mycolicibacterium fortuitum; test: Minimum inhibitory concentration required in vitro to reduce the number of viable of Mycobacterium fortuitum (clinical isolate) by 90%

CC(C)(C)Nc1cc2c(cc1[N+](=O)[O-])c(=O)c(C(=O)O)cn2C(C)(C)C
CC50 (MT4): 140 µM
MIC50 (Mycobacterium avium [1]): 1.2 µM (≈ 0.434 µg/mL)
MIC90 (Mycobacterium avium [2]): 12 µM (≈ 4.34 µg/mL)
MIC50 [3]: 0.5 µM (≈ 0.181 µg/mL)
MIC50 [4]: 1.4 µM (≈ 0.506 µg/mL)
MIC50 [5]: 1.5 µM (≈ 0.542 µg/mL)
MIC90 [6]: 6 µM (≈ 2.17 µg/mL)
MIC90 [7]: 6 µM (≈ 2.17 µg/mL)
MIC90 [8]: 1.5 µM (≈ 0.542 µg/mL)
MBC (Salmonella [9]): 6 µM (≈ 2.17 µg/mL)
MIC (Salmonella [10]): 3 µM (≈ 1.08 µg/mL)
MBC (Shigella [11]): 6 µM (≈ 2.17 µg/mL)
MIC (Shigella [12]): 6 µM (≈ 2.17 µg/mL)
MBC (Streptococcus [13]): 0.05 µM (≈ 0.0181 µg/mL)
MIC (Streptococcus [14]): 0.05 µM (≈ 0.0181 µg/mL)
MIC (Staphylococcus aureus [15]): 0.05 µM (≈ 0.0181 µg/mL)
MBC (Staphylococcus aureus [16]): 0.05 µM (≈ 0.0181 µg/mL)

Nc1cc2c(=O)c(C(=O)O)cn(C3CC3)c2cc1NC1CC1
CC50 (MT4): 200 µM
MIC50 (Mycobacterium avium [1]): 129 µM (≈ 38.6 µg/mL)
MIC90 (Mycobacterium avium [2]): > 200 µM
MIC50 [17]: 200 µM (≈ 59.9 µg/mL)
MIC50 [3]: 156 µM (≈ 46.7 µg/mL)
MIC50 [4]: > 200 µM
MIC50 [5]: > 200 µM
MIC90 [8]: > 200 µM
MIC (Salmonella [10]): > 200 µM
MIC (Shigella [12]): > 200 µM
MBC (Streptococcus [13]): 50 µM (≈ 15 µg/mL)
MIC (Streptococcus [14]): 50 µM (≈ 15 µg/mL)
MIC (Staphylococcus aureus [15]): 25 µM (≈ 7.48 µg/mL)
MBC (Staphylococcus aureus [16]): 25 µM (≈ 7.48 µg/mL)

CC(C)(C)n1cc(C(=O)O)c(=O)c2cc([N+](=O)[O-])c(NC3CC3)cc21
CC50 (MT4): ≥ 200 µM
MIC50 (Mycobacterium avium [1]): 47 µM (≈ 16.2 µg/mL)
MIC90 (Mycobacterium avium [2]): > 200 µM
MIC50 [17]: > 125 µM
MIC50 [3]: 2 µM (≈ 0.691 µg/mL)
MIC50 [4]: 31 µM (≈ 10.7 µg/mL)
MIC50 [5]: 47 µM (≈ 16.2 µg/mL)
MIC90 [6]: > 200 µM
MIC90 [7]: > 200 µM
MIC90 [8]: 7 µM (≈ 2.42 µg/mL)
MBC (Salmonella [9]): 25 µM (≈ 8.63 µg/mL)
MIC (Salmonella [10]): 25 µM (≈ 8.63 µg/mL)
MBC (Shigella [11]): 25 µM (≈ 8.63 µg/mL)
MIC (Shigella [12]): 25 µM (≈ 8.63 µg/mL)
MBC (Streptococcus [13]): 10 µM (≈ 3.45 µg/mL)
MIC (Streptococcus [14]): 5 µM (≈ 1.73 µg/mL)
MIC (Staphylococcus aureus [15]): 2.5 µM (≈ 0.863 µg/mL)
MBC (Staphylococcus aureus [16]): 10 µM (≈ 3.45 µg/mL)

O=C(O)c1cn(C2CC2)c2cc(NC3CC3)c(F)cc2c1=O
CC50 (MT4): > 200 µM
MIC50 (Mycobacterium avium [1]): > 200 µM
MIC90 (Mycobacterium avium [2]): > 200 µM
MIC50 [17]: > 125 µM
MIC90 [18]: > 200 µM
MIC50 [3]: 150 µM (≈ 45.3 µg/mL)
MIC50 [4]: > 200 µM
MIC50 [5]: > 200 µM
MIC90 [8]: > 200 µM
MBC (Salmonella [9]): 12 µM (≈ 3.63 µg/mL)
MIC (Salmonella [10]): 12 µM (≈ 3.63 µg/mL)
MBC (Shigella [11]): 25 µM (≈ 7.56 µg/mL)
MIC (Shigella [12]): 12 µM (≈ 3.63 µg/mL)
MBC (Streptococcus [13]): 12 µM (≈ 3.63 µg/mL)
MIC (Streptococcus [14]): 12 µM (≈ 3.63 µg/mL)
MIC (Staphylococcus aureus [15]): 12 µM (≈ 3.63 µg/mL)
MBC (Staphylococcus aureus [16]): 12 µM (≈ 3.63 µg/mL)

O=C(O)c1cn(C2CC2)c2cc(N3CCNCC3)c(F)cc2c1=O [CIPROFLOXACIN]
CC50 (MT4): 60 µM
MIC50 (Mycobacterium avium [1]): 2 µM (≈ 0.663 µg/mL)
MIC90 (Mycobacterium avium [2]): 3 µM (≈ 0.994 µg/mL)
MIC90 [6]: 3 µM (≈ 0.994 µg/mL)
MBC (Salmonella [9]): 0.01 µM (≈ 0.00331 µg/mL)
MIC (Salmonella [10]): 0.01 µM (≈ 0.00331 µg/mL)
MBC (Shigella [11]): 0.01 µM (≈ 0.00331 µg/mL)
MIC (Shigella [12]): 0.01 µM (≈ 0.00331 µg/mL)
MBC (Streptococcus [13]): 0.8 µM (≈ 0.265 µg/mL)
MIC (Streptococcus [14]): 0.4 µM (≈ 0.133 µg/mL)
MIC (Staphylococcus aureus [15]): 0.4 µM (≈ 0.133 µg/mL)
MBC (Staphylococcus aureus [16]): 0.4 µM (≈ 0.133 µg/mL)

CC(C)(C)Nc1cc2c(cc1N)c(=O)c(C(=O)O)cn2C(C)(C)C
CC50 (MT4): > 200 µM
MIC50 (Mycobacterium avium [1]): 140 µM (≈ 46.4 µg/mL)
MIC90 (Mycobacterium avium [2]): > 200 µM
MIC50 [17]: > 125 µM
MIC50 [3]: > 125 µM
MIC50 [4]: 168 µM (≈ 55.7 µg/mL)
MIC50 [5]: > 200 µM
MIC90 [6]: > 200 µM
MIC90 [7]: > 200 µM
MIC (Salmonella [10]): > 125 µM
MIC (Shigella [12]): > 125 µM
MIC (Streptococcus [14]): > 125 µM
MIC (Staphylococcus aureus [15]): > 125 µM

O=C(O)c1cn(C2CC2)c2cc(NC3CC3)c([N+](=O)[O-])cc2c1=O
CC50 (MT4): 40 µM
MIC50 (Mycobacterium avium [1]): > 200 µM
MIC50 [17]: 3.6 µM (≈ 1.19 µg/mL)
MIC90 [18]: 100 µM (≈ 32.9 µg/mL)
MIC50 [3]: 3.2 µM (≈ 1.05 µg/mL)
MIC50 [4]: ≥ 200 µM
MIC50 [5]: 72 µM (≈ 23.7 µg/mL)
MIC90 [6]: > 200 µM
MIC90 [7]: > 200 µM
MIC90 [8]: 50 µM (≈ 16.5 µg/mL)
MBC (Salmonella [9]): 1.5 µM (≈ 0.494 µg/mL)
MIC (Salmonella [10]): 1.5 µM (≈ 0.494 µg/mL)
MBC (Shigella [11]): 1.5 µM (≈ 0.494 µg/mL)
MIC (Shigella [12]): 1.5 µM (≈ 0.494 µg/mL)
MBC (Streptococcus [13]): 0.8 µM (≈ 0.263 µg/mL)
MIC (Streptococcus [14]): 0.8 µM (≈ 0.263 µg/mL)
MIC (Staphylococcus aureus [15]): 0.8 µM (≈ 0.263 µg/mL)
MBC (Staphylococcus aureus [16]): 1.5 µM (≈ 0.494 µg/mL)

CC(C)(C)Nc1cc2c(cc1[N+](=O)[O-])c(=O)c(C(=O)O)cn2C1CC1
CC50 (MT4): 192 µM
MIC50 (Mycobacterium avium [1]): 54 µM (≈ 18.6 µg/mL)
MIC90 (Mycobacterium avium [2]): > 200 µM
MIC50 [17]: > 125 µM
MIC50 [3]: 2 µM (≈ 0.691 µg/mL)
MIC50 [4]: 35 µM (≈ 12.1 µg/mL)
MIC50 [5]: 16 µM (≈ 5.53 µg/mL)
MIC90 [6]: > 200 µM
MIC90 [7]: > 200 µM
MIC90 [8]: 5 µM (≈ 1.73 µg/mL)
MBC (Salmonella [9]): 25 µM (≈ 8.63 µg/mL)
MIC (Salmonella [10]): 25 µM (≈ 8.63 µg/mL)
MBC (Shigella [11]): 25 µM (≈ 8.63 µg/mL)
MIC (Shigella [12]): 25 µM (≈ 8.63 µg/mL)
MBC (Streptococcus [13]): 2.5 µM (≈ 0.863 µg/mL)
MIC (Streptococcus [14]): 0.6 µM (≈ 0.207 µg/mL)
MIC (Staphylococcus aureus [15]): 0.6 µM (≈ 0.207 µg/mL)
MBC (Staphylococcus aureus [16]): 1.2 µM (≈ 0.414 µg/mL)

CC(C)(C)Nc1cc2c(cc1F)c(=O)c(C(=O)O)cn2C(C)(C)C
CC50 (MT4): > 200 µM
MIC50 (Mycobacterium avium [1]): > 200 µM
MIC50 [17]: 36 µM (≈ 12 µg/mL)
MIC90 [18]: 129 µM (≈ 43.1 µg/mL)
MIC50 [3]: 34.5 µM (≈ 11.5 µg/mL)
MIC50 [4]: 126 µM (≈ 42.1 µg/mL)
MIC50 [5]: > 200 µM
MIC90 [6]: ≥ 200 µM
MIC90 [8]: > 200 µM
MBC (Salmonella [9]): 12 µM (≈ 4.01 µg/mL)
MIC (Salmonella [10]): 12 µM (≈ 4.01 µg/mL)
MBC (Shigella [11]): 25 µM (≈ 8.36 µg/mL)
MIC (Shigella [12]): 12 µM (≈ 4.01 µg/mL)
MBC (Streptococcus [13]): 12 µM (≈ 4.01 µg/mL)
MIC (Streptococcus [14]): 12 µM (≈ 4.01 µg/mL)
MIC (Staphylococcus aureus [15]): 12 µM (≈ 4.01 µg/mL)
MBC (Staphylococcus aureus [16]): 12 µM (≈ 4.01 µg/mL)

CC1COc2c(N3CCN(C)CC3)c(F)cc3c(=O)c(C(=O)O)cn1c23 (stereo not drawn) [OFLOXACIN]
CC50 (MT4): > 200 µM
MIC50 (Mycobacterium avium [1]): 1.5 µM (≈ 0.542 µg/mL)
MIC90 (Mycobacterium avium [2]): 3 µM (≈ 1.08 µg/mL)
MIC50 [17]: 2 µM (≈ 0.723 µg/mL)
MIC90 [18]: 5 µM (≈ 1.81 µg/mL)
MIC50 [3]: 2 µM (≈ 0.723 µg/mL)
MIC50 [4]: 3 µM (≈ 1.08 µg/mL)
MIC50 [5]: 2 µM (≈ 0.723 µg/mL)
MIC90 [6]: 3 µM (≈ 1.08 µg/mL)
MIC90 [7]: 3 µM (≈ 1.08 µg/mL)
MIC90 [8]: 4 µM (≈ 1.45 µg/mL)
MBC (Salmonella [9]): 0.4 µM (≈ 0.145 µg/mL)
MIC (Salmonella [10]): 0.4 µM (≈ 0.145 µg/mL)
MBC (Shigella [11]): 0.4 µM (≈ 0.145 µg/mL)
MIC (Shigella [12]): 0.4 µM (≈ 0.145 µg/mL)
MBC (Streptococcus [13]): 1.5 µM (≈ 0.542 µg/mL)
MIC (Streptococcus [14]): 1.5 µM (≈ 0.542 µg/mL)
MIC (Staphylococcus aureus [15]): 0.8 µM (≈ 0.289 µg/mL)
MBC (Staphylococcus aureus [16]): 0.8 µM (≈ 0.289 µg/mL)
